# In patent publication US8658672B2, “HIF-1α activating agent” (University of Seoul Foundation of Industrial and Academic …, priority 2006, dated 2014):
# Like-named read-outs stand apart in the source and are kept apart here.
# Assays:
# [1] = system: CAM (choriallantoic membrane); details: CAM assay; for angiogenesis: filter paper with 10 or 50 μM solution 10 μl, three days
# Protocol: Particularly, the fertilized egg was incubated in a 37° C. 55% humid incubator. 10 days later, the egg albumin was removed by using a 2 ml hypodermic syringe in order to separate CAM and yolk sac from the shell membrane. On 10.5th day, the egg shell was removed (1 cm^2). […] Three days later, 1-2 ml of 10% fat emulsion was injected into chorioallantoic membrane, followed by observation under a microscope.
# VEGF [2] = details: 50 μM; cell line not clearly stated (SH-SY5Y implied)
# Protocol: Total RNA was extracted by using RNase Spin column (Qiagen, USA). cDNA was synthesized from 1 μg of the extracted RNA using AMV reverse transcriptase (Promega, USA) and random hexamer (Gibco-BRL, USA). RT-PCR was performed using the synthesized cDNA as a template with a VEGF forward primer represented by SEQ. […] NO: 1 (5′-[sequence]-3′) and a VEGF reverse primer represented by SEQ. […] NO: 2 (5′-[sequence]-3′). RT-PCR conditions were as follows; predenaturation at 95° C. for 5 minutes, denaturation at 95° C. for 45 seconds, annealing at 56° C. for 45 seconds, polymerization at 72° C. for 60 seconds, 30 cycles from denaturation to polymerization. For the control, RT-PCR was performed again with an 18S forward primer represented by SEQ. […] NO: 3 (5′-[sequence]-3′) and an 18S reverse primer represented by SEQ. […] NO: 4 (5′-[sequence]-3′). RT-PCR conditions were as follows; predenaturation at 95° C. for 5 minutes, denaturation at 95° C. for 45 seconds, annealing at 56° C. for 45 seconds, polymerization at 72° C. for 60 seconds, 30 cycles from denaturation to polymerization.
# [3] = used as an antibiotic in the mid-1900s, Japan; cited from earlier work
# VEGF [4] = assay: Effects of CQ and TPEN on the expression of VEGF, a HIF-1α target gene (RT-PCR); assay type: cell-based, human; details: TPEN 5 μM
# Source text: ID. […] ID. NO: 2 (5′-[…]-3′). […] ID. […] ID. NO: 4 (5′-[…]-3′).
# [5] = system: HRE (hypoxia-response element); assay: HRE dependent gene expression in HepG2 hepatoma cells (luciferase reporter gene assay); assay type: cell-based, human; details: p(HRE)4-luc, TPEN 5, 10 μM, CQ 10, 50 μM, 16 hours
# Protocol: Human HepG2 hepatoma cells were grown to the density of 5×10^4 and then transfected with 100 ng of HRE-driven reporter plasmid, p(HRE)4-luc together with plasmid pCHO110 which encodes β-galactosidase. The transfected human HepG2 hepatoma cells were cultured under normoxic condition and hypoxic condition and then treated with TPEN (5, 10 μM) and CQ (10, 50 μM) for 16 hours each. 48 hours after the transfection, luciferase activities were analyzed using the reporter gene assay system (Promega, USA) and normalized by β-galactosidase activities.
# FIH-1 [6] = target: T1, FIH-1 (Homo sapiens, UniProt Q9NWT6); assay: In vitro FIH-1 activity (capture of radio-labeled HIF-1α by GST-CBP); assay type: biochemical; design: histidine tag; made in house; host or cells: E. coli
# Protocol: The human FIH-1 gene (AF395830) was cloned into pET28a vector (Novagen, USA) and FIH-1 was overexpressed in E. coli as a histidine-tagged fusion protein and purified by Ni-affinity chromatography. The fusion protein was purified by gel-filtration chromatography (Hi-Load Superdex 200) and concentrated by ultrafiltration (Choi et al., Mol Pharmacol 68:1803-1809, 2005).
# The resin-bound GST-CBP N-domain (amino acids 1-450) (Kamei et al., Cell 85:403-414, 1996) was then added to 1 μg of each mixture in 500 μl of binding buffer (200 mM Tris-HCl (pH 8.0), 150 mM NaCl, 20 μM ZnCl2, 0.5 mM DTT) and incubation continued for one hour at 4° C. Glutathione-uniflow resin bound protein was washed four times with 1 ml of 0.1% Nondiet P-40 containing binding buffer, and visualized by SDS-PAGE by eluting using SDS sample buffer (Dann et al., Proc Natl Acad Sci USA 99:15351-15356, 2002). The present inventors substituted the asparagine-803 residue of HIF-1α with alanine to generate HIF-1α mutant [HIF-1α-C(N803A)], followed by investigation on FIH-1 activity by the same manner as described above.
# Radio-labeled HIF-1α was reacted with the purified recombinant FIH-1, in the presence or absence of CQ or TPEN. FIH-1 was expected to […] the asparagine-803 residue of HIF-1α and thus inhibit the interaction with CBP binding to HIF-1α transactivation domain (Mahon, P. C. et al., Genes Dev. 15, 2675-2686, 2001; Dannm C. E. R., et al., Proc. Natl. Acad. Sci. USA 99, 15351-15356, 2002; Lando, D., et al., Science 295, 858-861, 2002; Freedman, S. J. et al., Proc. Natl. Acad. Sci. USA 99, 5367-5372, 2002).
# VEGF [7] = details: normoxic condition, CQ 10, 50 μM, 16 hours; HepG2 and SH-SY5Y cells
# Protocol: (§1) Total RNA was extracted by using RNase Spin column (Qiagen, USA). VEGF expression was investigated by Northern blot analysis. Northern blot hybridization was performed using ^32P-labeled VEGF cDNA probe and ^32P-labeled EPO cDNA probe. The Northern blotting was performed by the conventional method well known to those in the art (Sambrook et al., Molecular cloning, 1989).
# EPO = details: normoxic condition, CQ 10, 50 μM, 16 hours; HepG2 and SH-SY5Y cells
# Protocol: as §1
# APP2576 transgenic mice = details: cited from earlier work
# [8] = in vivo; cited from earlier work
# [9] = cited from earlier work
# human cancer cell lines = details: several human cancer cell lines; cited from earlier work
# [10] = system: patients with Alzheimer's disease; details: phase II clinical trial; cited from earlier work
# GAL4-HIF-1α = assay: HIF-1α transactivation, Gal4-driven reporter gene assay in HepG2 cells; assay type: cell-based, human; details: normoxic condition, CQ 10, 50 μM, TPEN 5 μM, 16 hours
# Protocol: Human HepG2 hepatoma cells were cultured at the concentration of 5×10^4, which were transfected with 100 ng of Gal-4-driven reporter plasmid encoding the firefly luciferase gene under the control of the Gal4 binding site together with pGal4/HIF-1α plasmid which expresses HIF-1α linked to the DNA binding domain of the yeast Gal4 protein (amino acids 1-147). The transfected human HepG2 hepatoma cells were incubated in both normoxic and hypoxic conditions and then treated with CQ (10, 50 μM) for 16 hours in normoxic condition. 48 hours after the transfection, luciferase activities were analyzed using the reporter gene assay system (Promega, USA) and normalized by β-galactosidase activities.
# FIH-1 [11] = target: T1, FIH-1; details: F-HIF-1α peptide 4 μM, recombinant FIH-1, MALDI-TOF
# Protocol: The present inventors examined FIH-1 activity by measuring the asparagine hydroxylation of F-HIF-1α peptide. The peptide hydroxylation was measured by mass spectrophotometry.
# Particularly, F-HIF-1α (788-822 amino acids: FITC-aca-[sequence]) containing fluorescein and aca (aminocaproic acid) linker (AnyGen, KwangJu, Korea) at N-terminal was reacted with FIH-1 protein. The F-HIF-1α peptide was incubated at a final concentration of 4 μM with 2.8 μg of recombinant FIH-1 in reaction solution [20 mM Tris buffer (pH 7.5), 5 mM KCl, 1.5 mM MgCl2, 100 μM α-ketoglutarate and 400 μM ascorbic acid: final volume 50 μl]. After incubation with agitation for 2 hours at room temperature, excess salts were removed with ZipTipC18 (Millipore, USA). The F-HIF-1α peptide was eluted from the tip with a-cyano-4-hydroxycinnamic acid in acetonitrile/water (50:50 v/v) containing 0.1% TFA followed by washing with distilled water containing 0.1% TFA. The eluted peptide solution was transferred to a MALDI sample plate and MALDI-TOF measurements were performed with a Voyager analyzer (Applied Biosystems, USA).
# [12] = 10 μM solution 10 μl (lower amount, 30.3-39.7 ng)
# [13] = 50 μM solution 10 μl (higher amount, 151.5-198.5 ng)
# T1 sequence (Q9NWT6 whole entry, the tested form may be a part): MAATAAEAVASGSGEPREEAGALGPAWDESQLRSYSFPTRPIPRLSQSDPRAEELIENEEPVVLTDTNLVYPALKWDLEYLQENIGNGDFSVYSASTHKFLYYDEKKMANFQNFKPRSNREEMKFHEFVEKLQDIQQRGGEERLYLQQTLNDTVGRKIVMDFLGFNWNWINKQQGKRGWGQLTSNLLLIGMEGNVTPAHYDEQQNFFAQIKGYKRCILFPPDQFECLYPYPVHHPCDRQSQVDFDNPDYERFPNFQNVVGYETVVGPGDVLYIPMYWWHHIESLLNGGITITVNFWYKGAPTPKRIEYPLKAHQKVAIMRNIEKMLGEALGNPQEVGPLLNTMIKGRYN
smiles,measurement,setting,value
"Oc1c(Br)cc(Br)c2cccnc12 [C, 5,7-dibromo-8-hydroxyquinoline]",Angiogenesis/total (No.),[1]; [12],4/6
same,Angiogenesis/total (No.),[1]; [13],3/5
same,angiogenesis,[1],promote angiogenesis
same,"VEGF expression, % to the expression level induced by CQ",VEGF [2],60-70%
"Oc1c(I)cc(Cl)c2cccnc12 [CQ, 5-chloro-7-iodo-8-quinolinol]",Angiogenesis/total (No.),[1]; [12],8/12
same,Angiogenesis/total (No.),[1]; [13],8/12
same,angiogenesis,[1],promote angiogenesis
same,adverse effect in people,[3],caused subacute myelo-optic neuropathy
same,VEGF expression,"VEGF [4]; HepG2 cells, normoxic, CQ 10, 100 μM",differed in their effects on VEGF expression
same,VEGF expression,"VEGF [4]; SH-SY5Y cells, normoxic condition, CQ 10, 100 μM",increased VEGF expression
same,VEGF expression,"VEGF [4]; hypoxic condition, 16 hours, CQ 100 μM, SH-SY5Y and HepG2 cells","none of the control, TPEN and CQ increased VEGF expression"
same,HIF-1α dependent hypoxia-response element (HRE) activity,[5],induced HIF-1α dependent hypoxia-response element (HRE) activity
same,FIH-1 activity,"FIH-1 [6]; CQ 10 μM and 50 μM, interaction between HIF-1α and CBP as readout",FIH-1 activity was reduced
same,interaction between CBP and HIF-1α-C(N803A) mutant,"FIH-1 [6]; HIF-1α-C(N803A) mutant, presence or absence of CQ or FIH-1",did not change the interaction between CBP and HIF-1α-C (N803A)
same,effect of Cu(II) on the inhibition of FIH-1 activity by CQ,FIH-1 [6]; co-treatment with Cu(II),failed to reverse the inhibitory effect of CQ
same,effect of Zn(II) on the inhibition of FIH-1 activity by CQ,FIH-1 [6]; co-treatment with Zn(II),failed to reverse the inhibitory effect of CQ
same,expression of VEGF,VEGF [7],increased expressions of VEGF and EPO
same,expression of EPO,EPO,increased expressions of VEGF and EPO
same,amyloid beta plaques and serum levels of amyloid beta,APP2576 transgenic mice,reduced both amyloid beta plaques and serum levels of amyloid beta
same,systemic adverse effects,APP2576 transgenic mice,without systemic adverse effects
same,crossing of the blood-brain barrier,[8],able to cross the blood-brain barrier
same,"pKa value, Ca2+",[9]; Ca^2+,8.1
same,"pKa value, Cu2+",[9]; Cu^2+,15.8
same,"pKa value, Mg2+",[9]; Mg^2+,8.6
same,"pKa value, Zn2+",[9]; Zn^2+,12.5
same,apoptotic cell death,human cancer cell lines,causes apoptotic cell death
same,cognitive decline,[10],slowed cognitive decline
same,plasma amyloid beta concentrations,[10],decreased plasma amyloid beta concentrations
same,transactivation activity of HIF-1α,GAL4-HIF-1α,increased transactivation activity of HIF-1α
same,asparagine-hydroxylating activity of FIH-1,FIH-1 [11],inhibits the asparagine-hydroxylating activity of FIH-1
"Oc1c(I)cc(I)c2cccnc12 [B, 5,7-diiodo-8-hydroxyquinoline]",Angiogenesis/total (No.),[1]; [12],5/7
same,Angiogenesis/total (No.),[1]; [13],4/6
same,angiogenesis,[1],promote angiogenesis
